Drawing on PubChem BioAssay AID1259407 (Chemical Carcinogenesis Research Information System (CCRIS), 2018), this text covers mutagenic call for 5 compounds.

The test system of the series is CCRIS mutagenicity, Ames/micronucleus/aberration tests. Kind of series: CCRIS mutagenicity studies.
The mark [1] stands for this setting: Test System: AMES SALMONELLA TYPHIMURIUM, Strain/Indicator: TA98, Metabolic Activation: NONE.
Where [2] appears, read: Test System: AMES SALMONELLA TYPHIMURIUM, Strain/Indicator: TA98, Metabolic Activation: NONE, Method: STANDARD PLATE.
The mark [3] stands for this setting: Test System: AMES SALMONELLA TYPHIMURIUM, Strain/Indicator: TA100, Metabolic Activation: NONE, Method: STANDARD PLATE.
The mark [4] stands for this setting: Test System: AMES SALMONELLA TYPHIMURIUM, Strain/Indicator: TA98, Metabolic Activation: RAT, LIVER, S-9, AROCLOR 1254, Method: STANDARD PLATE.
[5] abbreviates: Test System: AMES SALMONELLA TYPHIMURIUM, Strain/Indicator: TA100, Metabolic Activation: RAT, LIVER, S-9, AROCLOR 1254, Method: STANDARD PLATE.

Calls of active or inactive are those of the source. No rule for the calls is given here.

As to `CCOP(=S)(OCC(C)C)SCCl` (stereo not drawn), the mutagenic call reads like this: under setting [1], “inactive; negative”; under setting [2], “inactive; negative”; (Test System: AMES SALMONELLA TYPHIMURIUM, Strain/Indicator: TA98, Metabolic Activation: RAT, LIVER, S-9, SODIUM PHENOBARBITAL, Method: STANDARD PLATE) “inactive; negative”; (Test System: AMES SALMONELLA TYPHIMURIUM, Strain/Indicator: TA98, Metabolic Activation: S-9) “inactive; negative”; (Test System: AMES SALMONELLA TYPHIMURIUM, Strain/Indicator: TA100, Metabolic Activation: NONE) “inactive; negative”; under setting [3], “inactive; negative”. Also, the mutagenic call reads like this: (Test System: AMES SALMONELLA TYPHIMURIUM, Strain/Indicator: TA100, Metabolic Activation: RAT, LIVER, S-9, SODIUM PHENOBARBITAL, Method: STANDARD PLATE) “inactive; negative”; (Test System: AMES SALMONELLA TYPHIMURIUM, Strain/Indicator: TA100, Metabolic Activation: S-9) “inactive; negative”; (Test System: E. COLI, Strain/Indicator: WP2, Metabolic Activation: NONE) “inactive; negative”; (Test System: E. COLI, Strain/Indicator: WP2, Metabolic Activation: RAT, LIVER, S-9, SODIUM PHENOBARBITAL, Method: STANDARD PLATE) “inactive; negative”; (Test System: E. COLI, Strain/Indicator: WP2, Metabolic Activation: S-9) “inactive; negative”; (Test System: E. COLI, Strain/Indicator: WP2 UVRA, Metabolic Activation: NONE) “inactive; negative”. The mutagenic call by setting is: (Test System: E. COLI, Strain/Indicator: WP2 UVRA, Metabolic Activation: RAT, LIVER, S-9, SODIUM PHENOBARBITAL, Method: STANDARD PLATE) “inactive; negative”; (Test System: E. COLI, Strain/Indicator: WP2 UVRA, Metabolic Activation: S-9) “inactive; negative”.

In the case of `Cc1nnc(NS(=O)(=O)c2ccc(N)cc2)s1`, the mutagenic call reads like this: (Test System: AMES SALMONELLA TYPHIMURIUM, Strain/Indicator: TA98, Metabolic Activation: HAMSTER, LIVER, S-9, AROCLOR 1254, Method: STANDARD PLATE) “inactive; negative”; under setting [2], “inactive; negative”; under setting [4], “inactive; negative”; (Test System: AMES SALMONELLA TYPHIMURIUM, Strain/Indicator: TA100, Metabolic Activation: HAMSTER, LIVER, S-9, AROCLOR 1254, Method: STANDARD PLATE) “inactive; negative”; under setting [3], “inactive; negative”; under setting [5], “inactive; negative”. Moreover, the mutagenic call runs as follows: (Test System: AMES SALMONELLA TYPHIMURIUM, Strain/Indicator: TA1535, Metabolic Activation: HAMSTER, LIVER, S-9, AROCLOR 1254, Method: STANDARD PLATE) “inactive; negative”; (Test System: AMES SALMONELLA TYPHIMURIUM, Strain/Indicator: TA1535, Metabolic Activation: NONE, Method: STANDARD PLATE) “inactive; negative”; (Test System: AMES SALMONELLA TYPHIMURIUM, Strain/Indicator: TA1535, Metabolic Activation: RAT, LIVER, S-9, AROCLOR 1254, Method: STANDARD PLATE) “inactive; negative”; (Test System: AMES SALMONELLA TYPHIMURIUM, Strain/Indicator: TA1537, Metabolic Activation: HAMSTER, LIVER, S-9, AROCLOR 1254, Method: STANDARD PLATE) “inactive; negative”; (Test System: AMES SALMONELLA TYPHIMURIUM, Strain/Indicator: TA1537, Metabolic Activation: NONE, Method: STANDARD PLATE) “inactive; negative”; (Test System: AMES SALMONELLA TYPHIMURIUM, Strain/Indicator: TA1537, Metabolic Activation: RAT, LIVER, S-9, AROCLOR 1254, Method: STANDARD PLATE) “inactive; negative”. Moreover, the mutagenic call (Test System: AMES SALMONELLA TYPHIMURIUM, Strain/Indicator: TA1538, Metabolic Activation: HAMSTER, LIVER, S-9, AROCLOR 1254, Method: STANDARD PLATE) was “inactive; negative”; the mutagenic call (Test System: AMES SALMONELLA TYPHIMURIUM, Strain/Indicator: TA1538, Metabolic Activation: NONE, Method: STANDARD PLATE) was “inactive; negative”; the mutagenic call (Test System: AMES SALMONELLA TYPHIMURIUM, Strain/Indicator: TA1538, Metabolic Activation: RAT, LIVER, S-9, AROCLOR 1254, Method: STANDARD PLATE) was “inactive; negative”; the mutagenic call (Test System: MOUSE LYMPHOMA, Strain/Indicator: L5178Y (TK+/TK-), Metabolic Activation: NONE, Method: SUSPENSION/PLATE) was “inactive; negative. reevaluation of results: negative”; the mutagenic call (Test System: MOUSE LYMPHOMA, Strain/Indicator: L5178Y (TK+/TK-), Metabolic Activation: RAT, LIVER, S-9, AROCLOR 1254, Method: SUSPENSION/PLATE) was “inactive; negative. reevaluation of results: equivocal”.

Turning to `Nc1ncnc2c1ncn2Cc1ccccc1`, the mutagenic call reads like this: (Test System: AMES SALMONELLA TYPHIMURIUM, Strain/Indicator: TA97, Metabolic Activation: NONE, Method: STANDARD PLATE) “inactive; negative”; (Test System: AMES SALMONELLA TYPHIMURIUM, Strain/Indicator: TA97, Metabolic Activation: RAT, LIVER, S-9, AROCLOR 1254, Method: STANDARD PLATE) “inactive; negative”; under setting [2], “inactive; negative”; under setting [4], “active; positive”; under setting [3], “inactive; negative”; under setting [5], “inactive; negative”.

As to `COc1cccc2c1C(=O)c1c(O)c3c(c(O)c1C2=O)C[C@@](O)(C(=O)CO)CC3O[C@H]1C[C@H](N(C)C)[C@H](O)[C@H](C)O1` (stereo partly drawn), the mutagenic call under setting [1] was “inactive; negative”; the mutagenic call (Test System: AMES SALMONELLA TYPHIMURIUM, Strain/Indicator: TA98, Metabolic Activation: RAT, LIVER, S-9, AROCLOR 1254) was “inactive; negative”; the mutagenic call (Test System: AMES SALMONELLA TYPHIMURIUM, Strain/Indicator: TA102, Metabolic Activation: NONE, Method: STANDARD PLATE) is “active; positive”; the mutagenic call (Test System: UDS RAT HEPATOCYTES, Strain/Indicator: THY INCORP, Metabolic Activation: NONE, Method: AUTOMATIC COLONY COUNTER) is “active; positive”.

As for `NC(=NCCCCCCN=C(N)/N=C(\N)Nc1ccc(Cl)cc1)/N=C(\N)Nc1ccc(Cl)cc1`, the mutagenic call was “inactive; negative; toxic at 10 um” (End Point: IN VITRO CHROMOSOMAL ABERRATIONS, Test System: SYRIAN HAMSTER EMBRYO (SHE) CELLS, Metabolic Activation: NONE) and “inactive; negative” (End Point: IN VITRO CHROMOSOMAL ABERRATIONS, Test System: SYRIAN HAMSTER EMBRYO (SHE) CELLS, Metabolic Activation: RAT, LIVER, S-9).
